Laboratory results: patent US20240425454A1, “IONIZABLE CATIONIC COMPOUND” (SEQIRUS INC., priority 2021, published 2024)

Experiment: TNS fluorescence pKa protocol on saRNA-LNP
Assay type: physicochemical
Conditions: saRNA-LNP containing the lipid, in a series of buffers; saRNA-LNP with the lipid; TNS 6 μM, pH 4 to 9.5, 25° C.; read-out: Apparent pKa
Procedure: In a black 96-well plate, solutions of saRNA-LNP (final assay concentration 2 μg/mL total RNA) in a series of buffers ranging from pH 4 to 9.5 were prepared. Buffers between pH 4 to 7.6 were prepared from disodium phosphate and citric acid. Buffers from 7.8 to 9.5 were prepared by titrating tris buffer with 10 N sodium hydroxide. To each well was added 6-(p-Toluidino)-2-naphthalenesulfonic acid sodium salt (TNS) in water to a final assay concentration of 6 μM. The fluorescence was read on a plate reader at 25° C. with an excitation setting of 321 nm and an emission setting of 445 nm. The intensity values were plotted as a function of pH using GraphPad Prism and were fit with a sigmoidal dose response curve. The apparent pKa was determined as the EC50 of this curve where half of the ionizable amines are expected to be protonated (see FIG. 1).

| Structure (SMILES) | pKa |
| --- | --- |
| CCCCC(CCCC)OC(=O)CCCCCCCCC(CCCCCCCCC(=O)OC(CCCC)CCCC)OC(=O)COC1CCN(C)CC1 [SL06] | 7.1 |
| CCCCC(CCCC)OC(=O)CCCCCCCCC(CCCCCCCCC(=O)OC(CCCC)CCCC)OC(=O)COCCCN(C)C [SL09] | 7.1 |
| CCCCC(CCCC)OC(=O)CCCCCCCCC(CCCCCCCCC(=O)OC(CCCC)CCCC)OC(=O)COC1CCN(CCCO)CC1 [SL12] | 6.9 |
| CCCCC(CCCC)OC(=O)CCCCCCCCC(CCCCCCCCC(=O)OC(CCCC)CCCC)OC(=O)CSCCN(C)C [SL10] | 5.8 |
| CCCCC(CCCC)OC(=O)CCCCCCCCC(CCCCCCCCC(=O)OC(CCCC)CCCC)OC(=O)CSC1CCN(C)CC1 [SL07] | 6.1 |
| CCCCC(CCCC)OC(=O)CCCCCCCCC(CCCCCCCCC(=O)OC(CCCC)CCCC)OC(=O)COCCN(C)C [SL08] | 7 |
| CCCCC(CCCC)OC(=O)CCCCCCCCC(CCCCCCCCC(=O)OC(CCCC)CCCC)OC(=O)CSCCN(CC)CC [SL11] | 5.6 |
